In patent US20240025953A1, “COMPOSITIONS AND METHODS FOR INHIBITING ALPHA-SYNUCLEIN AGGREGATION” (Seelos Therapeutics, Inc., priority 2020, published 2024):
Where two headings read alike, the source gives them in different places. Ends that are not written are not given here.

Columns and labels:
Type in all cases: in vitro ADME
[1] = Permeability in a Caco-2 assay; conditions: human; for efflux ratio at 10 μM: read-out: Mean (B-A/A-B) Efflux Ratio
Protocol: (§1) Permeability of the S62 and S71 peptides were assessed in a Caco-2 assay using methanol.
(§2) Permeability Ranking: lower is <1×10−6 cm/s; higher is >1×10-6 cm/s.

Caco-2 = assay: Permeability in a Caco-2 assay; conditions: Caco-2 assay using methanol
Protocol: as §1, §2

Stability in rat plasma = conditions: in vitro in rat plasma, 1% TCA and methanol as quenchers
Protocol: S62 and S71 peptides (SEQ ID NOs: 3 and 4, respectively) were incubated in vitro in rat plasma with 1% TCA and methanol as quenchers for a period of time calculated to be reflective of the amount of time the peptides would be subject to in vivo conditions if administered to rats.

[2] = Caco-2, Assay Conc. 10 μM, without verapamil, read-out: Mean A-B % Recovery
[3] = Caco-2, Assay Conc. 10 μM, without verapamil, read-out: Mean B-A % Recovery
[4] = Caco-2, with Verapamil 25 uM, Assay Conc. 10 μM, with Verapamil 25 uM, read-out: Mean A-B % Recovery
[5] = Caco-2, with Verapamil 25 uM, Assay Conc. 10 μM, with Verapamil 25 uM, read-out: Mean B-A % Recovery
[6] = Caco-2, Assay Conc. 10 μM, without verapamil

recovery at 10 μM [1, 2]	recovery at 10 μM [1, 3]	recovery at 10 μM [1, 4]	recovery at 10 μM [1, 5]	recovery of the peptides after incubation in rat plasma (Stability in rat plasma)	Papp A→B at 10 μM [1, 6]	Papp B→A at 10 μM [1, 6]	efflux ratio at 10 μM [1, 6]	Compound	Permeability (in words) (Caco-2)
70.1%	92.5%	59.7%	91.3%	not high enough to detect	–	–	–	GAVVWGVTAVKK [S62, GAVVWGVTAVKK]	neither of the peptides exhibited permeability
91.4%	74.7%	80.7%	92.7%	not high enough to detect	–	–	–	RAVVTGVTAVAE [S71, RAVVTGVTAVAE]	neither of the peptides exhibited permeability
93%	93.4%	–	–	–	36.8 ×10⁻⁶ cm/s	33.8 ×10⁻⁶ cm/s	0.917	CC(=O)CC(c1ccccc1)c1c(O)c2ccccc2oc1=O (stereo not shown) [Warfarin, reference compound]	–
87.1%	95.2%	–	–	–	0.391 ×10⁻⁶ cm/s	1.03 ×10⁻⁶ cm/s	2.65	CNC(=C[N+](=O)[O-])NCCSCc1ccc(CN(C)C)o1 [Ranitidine, reference compound]	–
